Results as given in article PMC12040169 (PLOS Biology, 2025).

Test: in vitro
Conditions: human, hela cells, % viability

Compared with `Cc1noc(C)c1S(=O)(=O)NCCc1c[nH]c2ccccc12` [CBK067311], `Cc1nc2c(c(=O)[nH]1)CN(Cc1c(C)oc3ccccc13)CC2` [CBK283984] is lower in viability at 28.5 h, 10 µM: 101% for the first, 94.8% for the second.

Going from `O=[N+]([O-])c1ccc(S(=O)(=O)CC(CN2CCCCC2)N2CCCCC2)cc1` (stereo not shown) [CBK267070] to `CC(CNC(=O)c1cccn(CC(=O)Nc2ccc(F)cc2)c1=O)N1CCCCCC1` (stereo not shown) [CBK286123], the viability at 28.5 h, 10 µM falls from 100% to 97.5%.

Going from `Cc1cc(C2CCCCCN2C(=O)c2cccc(F)c2)on1` (stereo not shown) [CBK285448] to `Fc1cccc(-c2nc3c(s2)CN(C2CCOCC2)CC3)c1` [CBK281647], the viability at 28.5 h, 10 µM falls from 96.8% to 87%.

Compared with `Cc1cccc(NC2=NC(=O)/C(=C\c3ccc(Cl)cc3)S2)c1C` [CBK263619], `Cc1cccc(-n2nc3c4nonc4ccc3[n+]2[O-])c1C` [CBK264626] is lower in viability at 28.5 h, 10 µM: 101% for the first, 93.6% for the second.

Compared with `CCCCOc1nccnc1-c1cnn(C)c1` [CBK107085], `CCCCN(C)c1nccnc1-c1cccnc1` [CBK037631] is higher in viability at 28.5 h, 10 µM: 92.8% for the first, 99.2% for the second.

Compared with `COc1ccccc1C1NC(=O)COC12CCN(Cc1ccccc1)CC2` (stereo not shown) [CBK092265], `COc1cc(C(CC(C)NC(C)(C)C)c2ccccc2)ccc1OCc1ccccc1` (stereo not shown) [CBK017901] is lower in viability at 28.5 h, 10 µM: 109% for the first, 79.8% for the second.

First: CN(C)CCCN1C(=O)C(O)=C(C(=O)c2ccc(F)cc2)C1c1cccnc1 (stereo not shown) [CBK264531]
Second: CN(C)CCCNC(=O)c1cnc2cc(Cl)ccc2c1O [CBK107354]
The viability at 28.5 h, 10 µM of the first is higher: 107% for the first, 94.4% for the second.

Going from `O=C(O)COc1noc2nc3c(cc12)CCCCC3` [CBK269429] to `O=C(C1CCC1)N1CCC(c2onc3c2CCCCC3)CC1` [CBK284496], the viability at 28.5 h, 10 µM rises from 97.7% to 104%.

First: CCN(CC(C)C#N)C(=O)c1nnn(-c2ccc3ncccc3c2)c1C (stereo not shown) [CBK305292]
Second: CC(=O)C(Sc1ccc2nnc(-c3ccc(C)cc3)n2n1)C(C)=O [CBK287525]
The viability at 28.5 h, 10 µM of the first is lower: 86.3% for the first, 98.9% for the second.

Going from `Cn1ccnc1Sc1nc2ccccc2nc1C(F)(F)F` [CBK093778] to `CS(=O)(=O)NC1CCCN(c2nc(-c3ccsc3)nc3ccccc23)C1` (stereo not shown) [CBK305623], the viability at 28.5 h, 10 µM falls from 106% to 99.1%.

Compared with `CCOc1cc(C)c(C(C)C)cc1S(=O)(=O)NCCN1CCOCC1` [CBK268727], `COc1ccc(S(=O)(=O)NCCCn2ccnc2)cc1Cl` [CBK269997] is lower in viability at 28.5 h, 10 µM: 110% for the first, 97.2% for the second.

First: CCC(=O)N1CCN(c2ccccc2NC(=O)c2ccc(C#N)cc2F)CC1 [CBK270110]
Second: Nc1cc(O)nc(SCC(=O)N2CCN(C(c3ccccc3)c3ccccc3)CC2)n1 [CBK268014]
The viability at 28.5 h, 10 µM of the first is lower: 81.8% for the first, 94% for the second.

Going from `COc1cccc(OCC(=O)NCC(c2ccsc2)N2CCCC2)c1` (stereo not shown) [CBK304630] to `CC[C@H](Cn1c(=O)oc2ccccc21)NC(=O)Cc1ccsc1` [CBK284543], the viability at 28.5 h, 10 µM falls from 89.6% to 89.2%.

First: COC(C(=O)N(C)C)C(OC)C(=O)N(C)C (stereo not shown) [CBK005447]
Second: NC(CCC(=O)O)C(=O)O (stereo not shown) [CBK260875C]
The viability at 28.5 h, 10 µM of the first is higher: 111% for the first, 97.3% for the second.

Compared with `COc1ccc2[nH]c3c(c2c1)CCN(C(C)=O)C31CCNCC1` [CBK284429], `CCc1noc(CN2CCC(c3c[nH]c4ccc(OC)cc34)CC2)n1` [CBK305960] is higher in viability at 28.5 h, 10 µM: 79.1% for the first, 84.1% for the second.

Compared with `CCOc1ccc(-n2c(C)cc(C(=O)NS(=O)(=O)c3ccc(C)cc3)c2C)cc1` [CBK296084], `O=S(=O)(Nc1cccc(O)c1)c1ccc(OC(F)(F)F)cc1` [CBK043822] is higher in viability at 28.5 h, 10 µM: 90.1% for the first, 108% for the second.

Compared with `O=C(O)Cc1ccc(OCC(=O)NCCCSc2ccccc2)cc1` [CBK296630], `Cc1cccc(C(=O)O)c1NC(=O)Cc1cccc2ccccc12` [CBK268361] is higher in viability at 28.5 h, 10 µM: 91.9% for the first, 111% for the second.

Compared with `O=C(O)CCC(=O)Nc1ccccc1C(=O)O` [CBK261325], `CS(=O)(=O)N(CC(=O)O)Cc1ccccc1` [CBK265805] is lower in viability at 28.5 h, 10 µM: 91.1% for the first, 90.1% for the second.

Going from `Cn1c(=O)n(CC(=O)OCc2ccccc2)c2cccnc21` [CBK284019] to `CCCCCn1c(=O)c(C(=O)Nc2cccc(O)c2)c(O)c2ccccc21` [CBK291189], the viability at 28.5 h, 10 µM rises from 91.1% to 111%.

Going from `COc1cc(Nc2cncc(-c3ccc(N)cc3)n2)cc(OC)c1OC` [CBK065642] to `COc1ccc(-c2noc(CSc3nc4ccccc4c(=O)n3-c3ccccc3)n2)cc1OC` [CBK268667], the viability at 28.5 h, 10 µM rises from 56.2% to 100%.

First: COC(=O)c1c(NC(=O)CC2Sc3ccccc3NC2=O)sc(C)c1C (stereo not shown) [CBK264429]
Second: N#C/C(=C\c1ccccc1O)C(=O)Nc1sc2c(c1C(N)=O)CCCC2 [CBK263644]
The viability at 28.5 h, 10 µM of the first is higher: 103% for the first, 101% for the second.

First: CC(=O)Nc1ccc(-c2cccc(COC3CCN(C(=O)Cc4c[nH]cn4)CC3)c2)cc1 [CBK149497]
Second: COc1ccc(-c2cc([C@H]3CN4CC[C@H]3C[C@@H]4CNC(=O)c3ccco3)n(C)n2)cc1 [CBK289099]
The viability at 28.5 h, 10 µM of the first is lower: 103% for the first, 113% for the second.

Compared with `Cc1cc(C(=O)N2CCC(c3nn(C)c4ncccc34)CC2)cs1` [CBK284987], `Cc1cc(C)n(CC2CCCN2C(=O)CCCc2ccccn2)n1` (stereo not shown) [CBK305920] is higher in viability at 28.5 h, 10 µM: 104% for the first, 105% for the second.

First: Cc1ccc(-c2cc(C(=O)N3CCN(C4CCS(=O)(=O)C4)CC3)c3ccccc3n2)cc1 (stereo not shown) [CBK297153]
Second: Cc1ccc2nc(-c3ccccc3)c(CC(=O)O)c(C(=O)O)c2c1 [CBK265128]
The viability at 28.5 h, 10 µM of the first is higher: 112% for the first, 87.3% for the second.

Compared with `CC(NC(=O)N1CCSCC1)c1cccc(Br)c1` (stereo not shown) [CBK306475], `COCCNC(=O)N1CCN(CCc2ccccc2)CC1` [CBK158909] is higher in viability at 28.5 h, 10 µM: 86.2% for the first, 97.3% for the second.

First: Cc1cccc(C)c1NC(=O)CN(c1ccc(F)cc1)S(=O)(=O)c1ccc2c(c1)OCCO2 [CBK264878]
Second: CCN(CC(=O)Nc1ccc2c(c1)OCCO2)S(=O)(=O)c1ccsc1C(=O)O [CBK296717]
The viability at 28.5 h, 10 µM of the first is higher: 104% for the first, 95.5% for the second.

First: O=C(Nc1nnc(-c2ccco2)o1)c1ccc(N2C(=O)CCC2=O)cc1 [CBK287423]
Second: O=C1CCC(=O)N1CCn1c(=O)n(C(=O)CCCOc2ccc(Cl)cc2)c2ccccc21 [CBK106496]
The viability at 28.5 h, 10 µM of the first is lower: 90.7% for the first, 93.4% for the second.

First: CC(C)c1ccc(/C=C/C(=O)NCCc2c[nH]cn2)cc1 [CBK149629]
Second: CCc1nc(CC(=O)NC(C)C(O)c2ccc(F)cc2)cs1 (stereo not shown) [CBK304003]
The viability at 28.5 h, 10 µM of the first is higher: 101% for the first, 86.7% for the second.

Compared with `CCCCC(=O)NC(c1ccccc1OC)c1cc(Cl)c2cccnc2c1O` (stereo not shown) [CBK110947], `CC(=O)NC(CC(=O)NCc1cccnc1-n1cncn1)c1ccc(Cl)cc1` (stereo not shown) [CBK298314] is higher in viability at 28.5 h, 10 µM: 84.4% for the first, 101% for the second.

Compared with `O=C(Nc1ccc(Cl)cc1)N1Cc2nc[nH]c2C[C@H]1c1nc(-c2ccncc2)no1` [CBK288964], `Nc1nc(SCc2ccc(Cl)cc2)nc2sc3c(c12)CCN(Cc1ccccc1)C3` [CBK263724] is lower in viability at 28.5 h, 10 µM: 91.4% for the first, 88.1% for the second.

Going from `CCc1nc2ccc(C(=O)NC3CCN(C)CC3)cn2c1N(C)C=O` [CBK146594] to `CCCc1cnc(N2CCN(CC(=O)Nc3ccc(C(C)=O)cc3)CC2)nc1` [CBK086194], the viability at 28.5 h, 10 µM falls from 108% to 104%.

Going from `Cc1nn(CC(=O)N2CCCCCC2)c(=O)c2cc3ccsc3n12` [CBK284060] to `Cc1cc2c(N3CCCC3)nc(N3CCCC3)nc2n1C` [CBK016633C], the viability at 28.5 h, 10 µM rises from 84.8% to 101%.

Compared with `S=c1[nH]nc(Cn2ccc(-c3ccccc3)n2)o1` [CBK022019], `Fc1ccc(-c2nccnc2OCc2ccccn2)cc1` [CBK106894] is lower in viability at 28.5 h, 10 µM: 108% for the first, 99.6% for the second.

First: O=C(C[C@@H]1O[C@H](CNCc2cccc(Cl)c2)[C@@H](O)[C@H]1O)N1CCCC1 [CBK288914]
Second: CN(C)CCNC(=O)c1sc2ccccc2c1CC1CCCCCN1C(=O)C1CCC1 (stereo not shown) [CBK286096]
The viability at 28.5 h, 10 µM of the first is lower: 95% for the first, 105% for the second.

Going from `O=[N+]([O-])c1ccccc1N/N=C/c1c[nH]c2ccccc12` [CBK261679] to `O=C(N/N=C/c1cccc(Oc2ccccc2)c1)c1ccncc1` [CBK261955], the viability at 28.5 h, 10 µM rises from 89.6% to 95.6%.

Going from `O=[N+]([O-])c1cccc(-c2noc([C@@H]3C[C@@H](O)CN3C3CCOCC3)n2)c1` [CBK288847] to `O=C(NCc1cccs1)C1(Cc2cccc(-c3ccc(F)c(F)c3)c2)CCOCC1` [CBK285569], the viability at 28.5 h, 10 µM falls from 101% to 93.2%.

Going from `C[S+]([O-])c1ccc(-c2ccc(CN(C3CC3)C3CCN(c4ncccn4)CC3)cn2)cc1` (stereo not shown) [CBK172877] to `O=C(N[C@H]1CCN2C(=O)c3cc(-c4ccsc4)ccc3NC(=O)[C@@H]2C1)c1cccs1` [CBK289563], the viability at 28.5 h, 10 µM rises from 90.2% to 103%.

Going from `CC(C)c1ccc(S(=O)(=O)N(CCC#N)Cc2ccccc2)cc1` [CBK043565] to `CC(Cn1cc(Cl)cn1)C(=O)N1CCN(C)CC1c1ccccc1` (stereo not shown) [CBK282016], the viability at 28.5 h, 10 µM rises from 90.7% to 111%.

Going from `COc1cc(/C=N/NC(=O)C(=O)Nc2ccc(C)c(C)c2)ccc1O` [CBK262225] to `Cc1cc(C(=O)CSc2nnnn2-c2ccc(O)cc2)c(C)n1Cc1ccc(F)cc1` [CBK297081], the viability at 28.5 h, 10 µM rises from 86% to 98.8%.

First: O=C(NCc1cccc(C(F)(F)F)c1)c1cnc(-c2ccccc2)c(-c2ccco2)c1 [CBK036667]
Second: CC(C)(CO)CNc1nc(-c2ccc(F)cc2)cnc1N [CBK063589]
The viability at 28.5 h, 10 µM of the first is higher: 103% for the first, 95.7% for the second.

Going from `c1c(CC2CCCCC2)nnn1[C@H]1CO[C@H]2[C@@H]1OC[C@@H]2NCC1CC1` [CBK289511] to `CC(=O)N[C@@H](CC[S+](C)[O-])C(=O)N1CCC2(C/C=C/C[C@@H]3COCC[C@@H]3NC(=O)[C@@H](CC(C)C)NC2=O)CC1` (stereo partly shown) [CBK292192], the viability at 28.5 h, 10 µM rises from 99.1% to 105%.

Going from `Cc1cc(COc2ccnc(N3CCCN(CC(N)=O)CC3)n2)no1` [CBK084036] to `c1cc(COc2cncc(N3CCCC3)n2)cs1` [CBK115669], the viability at 28.5 h, 10 µM rises from 85.9% to 102%.

Going from `O=C(O)c1csc(-c2ccc(Cl)cc2Cl)n1` [CBK067777] to `CN(C)S(=O)(=O)NC1CC(C)(C)Cc2c1cnn2-c1ccc(F)cc1` (stereo not shown) [CBK306646], the viability at 28.5 h, 10 µM rises from 90% to 112%.

Same assay, conditions: human, hela cells, % viability, bulk resorufin, single well

First: NS(=O)(=O)c1ccc(N/C=C2\C(=O)NC(=O)N(Cc3ccccc3Cl)C2=O)cc1 [CBK265586]
Second: CCCCN1C(=O)C(O)(c2c(C)nn(CCO)c2N)c2ccccc21 (stereo not shown) [CBK304286]
The viability at 28.5 h, 10 µM of the first is lower: 92.3% for the first, 116% for the second.
